Consider five compounds from US20110288086A1, “POLYCYCLIC QUINAZOLINES, PREPARATION THEREOF, AND USE THEREOF” (priority 2010, published 2011).

Structures are written as SMILES. Counter-ions that a name gives are not always drawn.

The target in one test is T1, aurora kinase B (Homo sapiens, UniProt Q96GD4).
T1 construct: purchased Invitrogen PV3174
The experiment in a line: Aurora kinase B inhibition in vitro (Invitrogen aurora kinase screening kit PV3174). Type of test: biochemical.

For test [1], the system named is K562 human chronicity marrow leukemic cells. Description: Tumor cell inhibition ratio, CCK-8 kit, K562. Conditions: K562, read-out: Antiproliferative effect (inhibition ratio) K562. A general note: Tetrazolium dyes change colour on reduction, which living cells bring about.
Description: (§1) The inhibitory activities of the compounds on tumor cells in vitro
For test [2], the system named is A549 human lung cancer cells. The experiment in a line: Tumor cell inhibition ratio, CCK-8 kit, A549. The settings on record: A549, read-out: Antiproliferative effect (inhibition ratio) A549.
Description: as §1
Test [3] has as its system PC-3 human carcinoma of prostate. The experiment in a line: Tumor cell inhibition ratio, CCK-8 kit, PC-3. The settings on record: read-out: Antiproliferative effect (inhibition ratio) PC-3.
Description: as §1
Test [4] deals with Hut78 T-Lymphocytic Leukemia cells. Description: Tumor cell inhibition ratio, CCK-8 kit, Hut78. The settings on record: Homo sapiens, HuT78, read-out: Antiproliferative effect (inhibition ratio) Hut-78.
Description: as §1
The test system of test [5] is Hep3B2.1-7 human hepatoma carcinoma cells. The experiment in a line: Tumor cell inhibition ratio, CCK-8 kit, Hep3B. Conditions: read-out: Antiproliferative effect (inhibition ratio) Hep3B.
Description: as §1
In test [6] the test system is PANC-1 human pancreatic cancer cells. The experiment in a line: Tumor cell inhibition ratio, CCK-8 kit, PANC-1. The settings on record: PANC-1, read-out: Antiproliferative effect (inhibition ratio) PANC-1.
Description: as §1
Test [7] deals with Colo320 human rectal cancer cells. Description: Tumor cell inhibition ratio, CCK-8 kit, Colo320. The settings on record: COLO 320, read-out: Antiproliferative effect (inhibition ratio) Colo320.
Description: as §1
The test system of test [8] is Jurkat E6-1 human T-cell lymphoma. The experiment in a line: Tumor cell inhibition ratio, CCK-8 kit, Jurkat E6-1. Conditions: Jurkat E6.1, read-out: Antiproliferative effect (inhibition ratio) E6-1.
Description: as §1
The test system of test [9] is MDA-MB-435s human breast carcinoma cells. The experiment in a line: Tumor cell inhibition ratio, CCK-8 kit, MDA-MB-435s. The settings on record: read-out: Antiproliferative effect (inhibition ratio) 435s.
Description: as §1
The target of the next test is EGFR tyrosine kinase (Homo sapiens, UniProt P00533). Description: EGFR tyrosine kinase inhibition in vitro (Invitrogen EGFR inhibitor screening kit PV3193).
Chain of EGFR tyrosine kinase (P00533 25-1210): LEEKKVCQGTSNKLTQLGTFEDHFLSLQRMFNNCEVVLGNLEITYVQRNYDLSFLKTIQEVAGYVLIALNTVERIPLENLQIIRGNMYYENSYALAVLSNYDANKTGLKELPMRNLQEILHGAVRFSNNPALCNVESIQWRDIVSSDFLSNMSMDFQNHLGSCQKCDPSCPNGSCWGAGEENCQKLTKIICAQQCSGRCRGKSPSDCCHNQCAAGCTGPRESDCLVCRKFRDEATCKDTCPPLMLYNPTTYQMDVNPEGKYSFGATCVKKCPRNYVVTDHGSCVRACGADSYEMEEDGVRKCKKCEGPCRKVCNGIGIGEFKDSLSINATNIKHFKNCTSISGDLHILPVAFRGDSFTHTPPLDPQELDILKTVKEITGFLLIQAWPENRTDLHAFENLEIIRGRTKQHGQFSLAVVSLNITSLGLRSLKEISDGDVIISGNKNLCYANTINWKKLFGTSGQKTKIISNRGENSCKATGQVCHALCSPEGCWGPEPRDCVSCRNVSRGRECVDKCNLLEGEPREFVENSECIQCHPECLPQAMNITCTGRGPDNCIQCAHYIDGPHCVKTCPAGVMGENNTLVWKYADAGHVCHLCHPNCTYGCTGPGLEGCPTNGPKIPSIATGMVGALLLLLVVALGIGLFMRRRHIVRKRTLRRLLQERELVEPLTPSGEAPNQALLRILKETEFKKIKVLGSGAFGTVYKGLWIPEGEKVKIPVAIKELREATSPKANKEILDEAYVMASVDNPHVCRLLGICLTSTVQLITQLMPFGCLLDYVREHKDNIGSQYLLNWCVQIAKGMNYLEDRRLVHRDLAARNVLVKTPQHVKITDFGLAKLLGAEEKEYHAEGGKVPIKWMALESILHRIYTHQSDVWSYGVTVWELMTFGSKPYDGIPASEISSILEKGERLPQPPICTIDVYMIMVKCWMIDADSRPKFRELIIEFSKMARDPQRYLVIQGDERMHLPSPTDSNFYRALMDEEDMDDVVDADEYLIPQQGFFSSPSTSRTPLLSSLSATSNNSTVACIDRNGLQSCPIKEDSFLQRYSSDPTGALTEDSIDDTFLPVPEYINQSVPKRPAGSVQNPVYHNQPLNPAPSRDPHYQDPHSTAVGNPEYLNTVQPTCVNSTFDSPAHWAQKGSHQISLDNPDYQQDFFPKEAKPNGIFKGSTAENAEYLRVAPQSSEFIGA

T1 sequence (Q96GD4 whole entry): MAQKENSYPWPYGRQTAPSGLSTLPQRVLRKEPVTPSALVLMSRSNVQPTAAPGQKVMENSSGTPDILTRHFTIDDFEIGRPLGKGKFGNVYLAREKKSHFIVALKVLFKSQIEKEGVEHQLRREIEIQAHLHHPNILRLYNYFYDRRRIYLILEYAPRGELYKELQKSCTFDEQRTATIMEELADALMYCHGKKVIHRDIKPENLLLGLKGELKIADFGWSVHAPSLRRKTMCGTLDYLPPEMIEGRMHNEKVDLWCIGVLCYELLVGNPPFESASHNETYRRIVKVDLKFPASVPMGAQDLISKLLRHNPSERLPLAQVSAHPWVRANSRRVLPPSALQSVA
Description for EGFR tyrosine kinase: The inhibitory activities of EGFR tyrosine kinase in vitro
Erlotinib hydrochloride was used as a positive control drug.

With `C#Cc1cccc2c1CN1C=Nc3cc(OCCOC)c(OCCOC)cc3C1=N2.Cl` [Compound V-4, 9-ethynyl-2,3-bis(2-methoxyethoxy)-8H-quinazolino[4,3-b]quinazoline hydrochloride trihydrate], the “The inhibition ratio of the compound on Aurora B(%)” value on aurora kinase B (40 μM) is recorded as 38.7%; on aurora kinase B (200 μM), 91.5%. Moreover, the inhibition at 10 µM came to 31.4% in [1]; 48.6% in test [2]; 22.2% in [3]; 44.1% in test [4]; 33.5% in test [5]; 39.7% in [6]. Also, the inhibition at 10 µM in test [7] stood at 48.9%; in [8] it was 6.85%; in test [9], 31.3%. Besides, the inhibition at 100 µM in [1] was 87.6%; in test [2], 78.7%; in test [3], 62.7%; in test [4], 85%; in [5] it was 79%; in test [6] it was 85.9%. Further, the inhibition at 100 µM in test [7] worked out at 83.4%; in test [8], 19.8%; in [9], 92.6%. Moreover, the “The inhibition ratio of the compound on EGFR(%)” value is 48.7% on EGFR tyrosine kinase (40 μM) and 93.2% at EGFR tyrosine kinase (200 μM).
As for `COCCOc1cc2c(cc1OCCOC)C1=Nc3cccc(Cl)c3CN1C=N2.Cl` [Compound V-1, 9-chloro-2,3-bis(2-methoxyethoxy)-8H-quinazolino[4,3-b]quinazoline hydrochloride monohydrate], the “The inhibition ratio of the compound on Aurora B(%)” value on aurora kinase B (40 μM) stood at 47.6%; at aurora kinase B (200 μM), 88.6%. The inhibition at 10 µM in [1] was 40.7%; in test [2] it was 40.5%; in [3], 51.6%; in test [4] it was 16.1%; in test [5], 50.4%; in test [6] it was 35.7%. Besides, the inhibition at 10 µM stood at 55.1% in test [7], 55% in test [8] and 60.9% in test [9]. Moreover, the inhibition at 100 µM in test [1] was 87%; in [2] it was 81.4%; in test [3], 62.4%; in test [4], 64.5%; in test [5], 89.3%; in test [6], 78.1%. The inhibition at 100 µM came out at 81% in test [7], 81.7% in test [8] and 91.2% in test [9]. Also, the “The inhibition ratio of the compound on EGFR(%)” value is on record as 57.6% on EGFR tyrosine kinase (40 μM) and 91.5% at EGFR tyrosine kinase (200 μM).
With `COCCOc1cc2c(cc1OCCOC)C1=Nc3ccc(OCc4cccc(F)c4)c(Cl)c3CN1C=N2` [Compound V-14, 9-chloro-10-(3-fluoro-benzyloxy)-2,3-bis(2-methoxyethoxy)-8H-quinazolino[4,3-b]quinazoline], the figures for the “The inhibition ratio of the compound on Aurora B(%)” value at aurora kinase B (40 μM) and on aurora kinase B (200 μM) were 23.2% and 76.9%, respectively. Also, the inhibition at 10 µM in [1] came out at 36.6%; in test [2], 31.1%; in test [3], 38.5%; in test [4], 21.3%; in [5], 45.1%; in [6], 38.3%. Moreover, the inhibition at 10 µM in [7] is 17.6%; in [8] it was 26.9%; in test [9], 46.6%. Further, the inhibition at 100 µM in [1] is 100%; in test [2], 97.8%; in [3], 97.1%; in test [4], 98.7%; in [5], 100%; in test [6], 99.9%. The inhibition at 100 µM in test [7] came out at 88%; in test [8], 97.7%; in test [9] it was 94.8%. In addition, the figures for the “The inhibition ratio of the compound on EGFR(%)” value at EGFR tyrosine kinase (40 μM) and at EGFR tyrosine kinase (200 μM) were 45.2% and 87.9%, respectively.
With `COCCOc1cc2c(cc1OCCOC)C1=Nc3cccc(F)c3CN1C=N2` [Compound V-3, 9-fluoro-2,3-bis(2-methoxyethoxy)-8H-quinazolino[4,3-b]quinazoline mesylate], the “The inhibition ratio of the compound on Aurora B(%)” value at aurora kinase B (40 μM) worked out at 39.5%; at aurora kinase B (200 μM) it was 83.6%. The inhibition at 10 µM in test [1] was found to be 43.1%; in test [2], 44.6%; in test [3], 34%; in test [4], 44.1%; in [5], 42.3%; in [6], 30.9%. The figures for the inhibition at 10 µM in test [7], in [8] and in test [9] were 34.8%, 42% and 3.38%, respectively. Also, the inhibition at 100 µM amounted to 88.8% in test [1]; 76.2% in [2]; 87% in test [3]; 84.1% in test [4]; 80.7% in [5]; 75.4% in [6]. Besides, the figures for the inhibition at 100 µM in test [7], in [8] and in test [9] were 79%, 78% and 84.1%, respectively. Moreover, the results for the “The inhibition ratio of the compound on EGFR(%)” value at EGFR tyrosine kinase (40 μM) and on EGFR tyrosine kinase (200 μM) were 49.5% and 81.6%, respectively.
Take `COCCOc1cc2c(cc1OCCOC)C1=Nc3cccc(OC)c3CN1C=N2` [Compound V-10, 9-methoxy-2,3-bis(2-methoxyethoxy)-8H-quinazolino[4,3-b]quinazoline]: the entries for the “The inhibition ratio of the compound on Aurora B(%)” value at aurora kinase B (40 μM) and on aurora kinase B (200 μM) were 20.8% and 73.6%, respectively. In addition, the inhibition at 10 µM came out at 47.5% in test [1]; 28.8% in [2]; 9.39% in test [3]; 41.1% in test [4]; 31.9% in test [5]; 36.5% in test [6]. For the same compound, the inhibition at 10 µM in [7] amounted to 10.8%; in test [8], 51.8%; in [9] it was 29.6%. The inhibition at 100 µM in test [1] turned out to be 85%; in test [2], 82.8%; in test [3], 91.7%; in test [4], 72.2%; in test [5], 72.2%; in test [6], 96.9%. The inhibition at 100 µM came out at 72.8% in [7], 84.2% in test [8] and 65.1% in test [9]. The “The inhibition ratio of the compound on EGFR(%)” value is 30.8% on EGFR tyrosine kinase (40 μM) and 78.5% at EGFR tyrosine kinase (200 μM).
